From patent US7642367B2, “Diamino-functional chalcones” (Lica Pharmaceuticals A/S, priority 2002, dated 2010)
In brackets after ≈: the same amount, converted by molar mass.

Key:
[1] = test system: dihydroorotate dehydrogenase (DHODH); test: DHODH assay; assay type: biochemical; conditions: test concentration not given
Protocol: 100 μl chalcone or 0.1 M Tris-HCl pH 8.0 is added to a well in a 96-wells microtiter plate. Then 50 μl enzyme dilution is added. The microtiter plate is placed in the Powerwavex340 and the enzymatic reactions starts when adding 100 μl assay mixture. The reaction are measured every 20 sec. for 10 min. The samples with chalcones are compared with the samples with 0.1 M Tris-HCl pH 8.0 and the percent inhibition is calculated.
Enzyme dilution: The solution of recombinant purified enzyme is dissolved in 0.1 M Tris-HCl pH 8 to give an initial velocity of 0.04-0.05 ΔA/min.
2,6-dichlorophenolindophenol (DCIP)-stock solution: 40 mg DCIP and 10 ml 99% Ethanol are mixed for 10 min at RT. Then 100 μl 1.0 M Tris-HCl pH 8 and milliQ H20 are added to a final volume of 100 ml. The A600 of the DCIP-stock solution are measured in a microtiter plate on the Powerwavex340 (Bio-Tek instruments, Inc.)
[…]-stock solution: 25 mM dihydroorotate stock-solution is prepared by first dissolving in the same amount of mol NaOH and then miliQ H20 is added to the final volume.
Assay mix (10 ml solution): 600 μl of DHODH-stock solution and X ml (depending on the A600 value of stock-solution) DCIP to a final A600=2.5 are mixed. Then 0.1 M Tris-HCl pH 8.0 are added to a final volume of 10 ml.
Preparation of compound solution: A 10 mM stock-solution of compound (e.g. a chalcone derivative) is made in dimethylsulfoxid (DMSO). The compound is then diluted in 0.1 M Tris-HCl pH 8 to the test concentrations. The final DMSO concentration in the sample is 10%

non-fastidious bacteria = test: Activity against non-fastidious bacteria (panel); conditions: for activity against Gram-positive non-fastidious bacteria: pathogenic Gram-positive bacteria
S. aureus ATCC29213 = test: Killing curve (time-kill) / broth macrodilution MIC; assay type: cell-based, Staphylococcus aureus; conditions: for bactericidal or bacteriostatic (time-kill curve): S. aureus ATCC29213, concentrations above the MIC
[2] = test system: Bacteroides fragilis, Clostridium perfringens, Clostridium difficele; assay type: cell-based; conditions: single concentration of compound (100 μM)
[3] = test system: Staphylococcus aureus ATCC29213; test: MIC determination in broth microdilution assay; conditions: A: Staphylococcus aureus ATCC29213; NA: no activity
[4] = test system: Staphylococcus aureus ATCC33591 (resistant to methicillin); test: MIC determination in broth microdilution assay; conditions: B: Staphylococcus aureus ATCC33591 (resistant to methicillin); NA: no activity
[5] = test system: Staphylococcus intermedius #2357 (clinical isolate); test: MIC determination in broth microdilution assay; conditions: C: Staphylococcus intermedius #2357; NA: no activity
[6] = test system: Enterococcus faecalis ATCC29212; test: MIC determination in broth microdilution assay; conditions: D: Enterococcus faecalis ATCC29212; NA: no activity
[7] = test system: Enterococcus faecium #17501 (vancomycin-resistant clinical isolate); test: MIC determination in broth microdilution assay; conditions: E: Enterococcus faecium #17501 (vancomycin-resistant); NA: no activity
[8] = test system: Streptococcus pneumoniae #998 (clinical isolate); test: MIC determination in broth microdilution assay; conditions: F: Streptococcus pneumoniae #998; NA: no activity
Eschericia coli ESS = test: MIC determination in broth microdilution assay; conditions: for MIC: H: Eschericia coli ESS, NA: no activity
[9] = test system: Eschericia coli ATCC25922; test: MIC determination in broth microdilution assay; conditions: for MIC: G: Eschericia coli ATCC25922, NA: no activity
[10] = Determination of metabolic stability (liver microsomes); assay type: in vitro ADME, Wistar rat; conditions: for Metabolic turn-over in vitro: rat liver microsomes, 20 μM, 15 min at 37° C.
Protocol: incubations were performed with Wistar rat liver microsomes (0.25 mg/ml) in 2% sodium bicarbonate solution. NADP (0.13 mg/ml), glucose-6-phosphate (0.63 mg/ml) and glucose-6-phosophate dehydrogenase (0.38 units/ml) were used as NADPH generation system and UDPGA (0.48 mg/ml) was added to include the phase II reaction, glucuronic acid conjugation, in the assay. After 5 minutes of pre-incubation the reaction was started by addition of the test article to give a final concentration of 20 μM. Samples were incubated for 15 min at 37° C. and the reactions were terminated by addition of equal volumes of acetonitrile. Blank incubations were performed at the same concentration but without addition of microsomes. Both blank and microsome-containing samples were made in replicats of three. Prior to analysis samples were centrifuged for 10 min. at 3500 rpm, HPLC system:
Initial conditions were 40% mobile phase A (acetonitrile) and 60% mobile phase B (10 mM ammonium acetate pH 9.5). During the first 20 minutes, the mobile phase was changed via a linear gradient to 90% A and 10% B. This was followed by a 5 minutes linear gradient to initial conditions, which were maintained for 5 min. The flow rate was 0.20 ml/min and injection volume 10 μl.

[11] = test system: Plasmodium falciparum 3D7; test: Plasmodium falciparum assay (3H-phenylalanine labelling); assay type: cell-based; conditions: Plasmodium falciparum 3D7 (Table 2); read-out: IC50
L. major promastigotes = test: Leishmania promastigote assay (3H-thymidine); conditions: L. major

| SMILES | Inhibition of DHODH [1] | MIC [3] | MIC [4] | MIC [5] | MIC [6] | MIC [7] | MIC [8] | MIC (Eschericia coli ESS) | further results |
| --- | --- | --- | --- | --- | --- | --- | --- | --- | --- |
| COc1ccc(C(=O)/C=C/c2ccccc2)cc1 [4′MC, 4′methoxy chalcone, reference compound] | 7% |  |  |  |  |  |  |  | activity against Gram-positive non-fastidious bacteria (non-fastidious bacteria): no antibacterial effect at all |
| CN(C)CCN(C)c1cccc(C(=O)/C=C/c2ccc(Cl)cc2Cl)c1 [B015, (E)-3-(2,4-Dichloro-phenyl)-1-{3-[(2-dimethylamino-ethyl)-methyl-amino]-phenyl}-propenone] | 25% |  |  |  |  |  |  |  |  |
| CN(C)CCN(C)c1cccc(C(=O)/C=C/c2cc(F)ccc2F)c1 [B017, (E)-3-(2,5-Difluoro-phenyl)-1-{3-[(2-dimethylamino-ethyl)-methyl-amino]-phenyl}-propenone] | 23% |  |  |  |  |  |  |  |  |
| CN(C)CCN(C)c1cccc(C(=O)/C=C/c2ccc(Br)cc2F)c1 [B018, (E)-3-(4-Bromo-2-fluoro-phenyl)-1-{3-[(2-dimethylamino-ethyl)-methyl-amino]-phenyl}-propenone] | 22% |  |  |  |  |  |  |  |  |
| CCCCN(CCCC)c1cccc(/C=C/C(=O)c2ccccc2NCCN(C)C)c1 [B041, (E)-3-(3-Dibutylamino-phenyl)-1-[2-(2-dimethylamino-ethylamino)-phenyl]-propenone] |  | 4.7 µM (≈ 1.98 µg/mL) | 4.7 µM (≈ 1.98 µg/mL) | 9.4 µM (≈ 3.96 µg/mL) | 9.4 µM (≈ 3.96 µg/mL) | 9.4 µM (≈ 3.96 µg/mL) | 18.8 µM (≈ 7.93 µg/mL) | 300.0 µM (≈ 126 µg/mL) | MIC (time-kill curve figure) (S. aureus ATCC29213; S. aureus ATCC29213): 9.4 µM (≈ 3.96 µg/mL); dependence of the bactericidal action (S. aureus ATCC29213; S. aureus ATCC29213): primarily dependent on incubation time; bactericidal or bacteriostatic (time-kill curve) (S. aureus ATCC29213): bactericidal; activity against anaerobic bacteria [2]: activity against all microorganisms within the test panel |
| COc1ccc(C(=O)/C=C/c2ccccc2N(C)CCN(C)C)c(F)c1 [B058, (E)-3-{2-[(2-Dimethylamino-ethyl)-methyl-amino]-phenyl}-1-(2-fluoro-4-methoxy-phenyl)-propenone] | 17% |  |  |  |  |  |  |  |  |
| COc1ccc(C(=O)/C=C/c2cc(-c3cc(C)cc(C)c3)ccc2N2CCN(C)CC2)c(CN(C)C)c1 [B102, (E)-1-(2-Dimethylaminomethyl-4-methoxy-phenyl)-3-[3′,5′-dimethyl-4-(4-methyl-piperazin-1-yl)-biphenyl-3-yl]-propenone] |  | 4.7 µM (≈ 2.34 µg/mL) | 9.4 µM (≈ 4.68 µg/mL) | 18.8 µM (≈ 9.36 µg/mL) | 9.4 µM (≈ 4.68 µg/mL) | 9.4 µM (≈ 4.68 µg/mL) | 4.7 µM (≈ 2.34 µg/mL) | 4.7 µM (≈ 2.34 µg/mL) | MIC [9]: 37.5 µM (≈ 18.7 µg/mL); activity against Gram-positive non-fastidious bacteria (non-fastidious bacteria): increased potency |
| Cc1cc(C)cc(-c2ccc(N3CCN(C)CC3)c(/C=C/C(=O)c3ccccc3N)c2)c1 [B115, (E)-1-(2-Amino-phenyl)-3-[3′,5′-dimethyl-4-(4-methyl-piperazin-1-yl)-biphenyl-3-yl]-propenone] |  | 4.7 µM (≈ 2 µg/mL) | 4.7 µM (≈ 2 µg/mL) | 4.7 µM (≈ 2 µg/mL) | 4.7 µM (≈ 2 µg/mL) | 4.7 µM (≈ 2 µg/mL) | 9.4 µM (≈ 4 µg/mL) | 9.4 µM (≈ 4 µg/mL) | Metabolic turn-over in vitro [10]: 0%; activity against Gram-positive non-fastidious bacteria (non-fastidious bacteria): increased potency |
| Cc1cc(C)cc(-c2ccc(N3CCNCC3)c(/C=C/C(=O)c3cccc(NCCN(C)C)c3)c2)c1 [B116, (E)-1-[3-(2-Dimethylamino-ethylamino)-phenyl]-3-(3′,5′-dimethyl-4-piperazin-1-yl-biphenyl-3-yl)-propenone] |  | 2.4 µM (≈ 1.16 µg/mL) | 4.7 µM (≈ 2.27 µg/mL) | 4.7 µM (≈ 2.27 µg/mL) | 4.7 µM (≈ 2.27 µg/mL) | 4.7 µM (≈ 2.27 µg/mL) | 4.7 µM (≈ 2.27 µg/mL) | 4.7 µM (≈ 2.27 µg/mL) | activity against E. coli ATCC25922 [9]: high activity; MIC [9]: 4.7 µM (≈ 2.27 µg/mL); activity against ESS strain of E. coli (Eschericia coli ESS): high activity |
| COc1ccc(C(=O)/C=C/c2cc(-c3cc(C)cc(C)c3)ccc2N2CCNCC2)c(CN(C)C)c1 [B117, (E)-1-(2-Dimethylaminomethyl-4-methoxy-phenyl)-3-(3′,5′-dimethyl-4-piperazin-1-yl-biphenyl-3-yl)-propenone] |  | 4.7 µM (≈ 2.27 µg/mL) | 4.7 µM (≈ 2.27 µg/mL) | 9.4 µM (≈ 4.55 µg/mL) | 4.7 µM (≈ 2.27 µg/mL) | 4.7 µM (≈ 2.27 µg/mL) |  | 4.7 µM (≈ 2.27 µg/mL) | MIC [9]: 18.8 µM (≈ 9.09 µg/mL) |
| COc1ccc(C(=O)/C=C/c2cc(-c3ccccc3OC)ccc2N2CCCN(C)CC2)c(F)c1 [B143, (E)-1-(2-Fluoro-4-methoxy-phenyl)-3-[2′-methoxy-4-(4-methyl-[1,4]diazepan-1-yl)-biphenyl-3-yl]-propenone] |  |  |  |  |  |  |  |  | MIC (time-kill curve figure) (S. aureus ATCC29213; S. aureus ATCC29213): 9.4 µM (≈ 4.46 µg/mL); bactericidal or bacteriostatic (time-kill curve) (S. aureus ATCC29213): bactericidal |
| Cc1ccccc1-c1ccc(N(C)CCCN(C)C)c(/C=C/C(=O)c2ccccc2CN(C)C)c1 [B147, (E)-1-(2-Dimethylaminomethyl-phenyl)-3-{4-[(3-dimethylamino-propyl)-methyl-amino]-2′-methyl-biphenyl-3-yl}-propenone] |  |  |  |  |  |  |  |  | IC50 [11]: 600 nM |
| Cc1ccccc1-c1ccc(N2CCN(C)CC2)c(/C=C/C(=O)c2ccc(O)c(CN(C)C)c2)c1 [B208, (E)-1-(3-Dimethylaminomethyl-4-hydroxy-phenyl)-3-[2′-methyl-4-(4-methyl-piperazin-1-yl)-biphenyl-3-yl]-propenone] |  |  |  |  |  |  |  |  | IC50 [11]: 400 nM; IC50 (L. major promastigotes): 1100 nM |
| Cc1ccccc1-c1ccc(N2CCN(C)CC2)c(/C=C/C(=O)c2ccc(O)cc2)c1 [B209, (E)-1-(4-Hydroxy-phenyl)-3-[2′-methyl-4-(4-methyl-piperazin-1-yl)-biphenyl-3-yl]-propenone] |  |  |  |  |  |  |  |  | IC50 [11]: 300 nM |
| Cc1ccccc1-c1ccc(N2CCN(C)CC2)c(/C=C/C(=O)c2cccc(NC(=O)CN(C)C)c2)c1 [B211, 2-Dimethylamino-N-(3-{3-[2′-methyl-4-(4-methyl-piperazin-1-yl)-biphenyl-3-yl]-(E)-acryloyl}-phenyl)-acetamide] |  |  |  |  |  |  |  |  | IC50 [11]: 700 nM |
| C=CC(C)(C)c1cc(/C=C/C(=O)c2ccc(O)cc2)c(OC)cc1O [LicA, Licochalcone A] | 25% |  |  |  |  |  | 75.0 µM (≈ 25.4 µg/mL) | 300.0 µM (≈ 102 µg/mL) | turn-over in vitro [10]: 100%; Metabolic turn-over in vitro [10]: 100%; activity against Gram-positive non-fastidious bacteria (non-fastidious bacteria): moderate bactericidal activity; activity against Escherichia coli (non-fastidious bacteria; prototype pathogenic Gram-negative bacterium): only modest or no activity |
